Experimental findings from ChEMBL document CHEMBL3352677, “Thiazolidine-2,4-diones as multi-targeted scaffold in medicinal chemistry: Potential anticancer agents” (2014) are described below.

Structures are written as SMILES. In brackets after ≈: the same amount, converted by molar mass.

The experiment relates to Artemia. As to the kind of experiment: Cytotoxicity in brine shrimps larvae assessed as mortality after 24 hrs. In kind it is functional. Particulars: read-out: ED50 (the source's name).
For the molecule `COc1cc([C@@H]2c3cc4c(cc3[C@H](O)[C@H]3COC(=O)[C@H]23)OCO4)cc(OC)c1OC` [PODOFILOX], the EC50 turned out to be 3.61 µg/mL (≈ 8.71 µM).

`O=C1NC(=O)/C(=C/c2ccc(/C=C/C(=O)c3cccs3)cc2)S1`: the EC50 amounted to 4 µg/mL (≈ 11.7 µM). Under `O=C1NC(=O)/C(=C/c2ccc(/C=C/C(=O)c3ccc(F)cc3)cc2)S1` stands 4 µg/mL (≈ 11.3 µM); under `O=C1NC(=O)/C(=C/c2ccc(/C=C/C(=O)c3cccc(F)c3)cc2)S1`, 4 µg/mL (≈ 11.3 µM).
